In patent US11109593B2, “Isoxazolin-5-one derivative and herbicide containing same as active ingredient” (HOKKO CHEMICAL INDUSTRY CO., LTD., priority 2017, dated 2021):

These molecules were tested on Echinochloa crus-galli (assay: Test Example 1: herbicidal effect test by treatment of rice paddy soil (immediately after seeding)). Conditions: 120 g/10a active ingredient, dry weight vs untreated area, 14 days after treatment.
Format: in vivo
Procedure, shortened: (§1)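 Application occurs immediately after seeding, with diluted emulsion added to paddy water (about 3 cm deep) over puddled, fertilized soil at 120 g active ingredient per 10 ares. Herbicidal rate is calculated from mean dry weight against untreated controls 14 days later.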

Structure (SMILES)	Herbicidal rate (%) Echinochloa crus-galli [%]
Cc1c(Cc2ccccc2N(C(=O)Oc2ccccc2)S(=O)(=O)C(F)(F)F)c(=O)on1C(C)(C)C [Compound 1-762]	90
CCC(C)n1oc(=O)c(Cc2ccccc2N(C(=O)c2ccc(Cl)cc2)S(=O)(=O)C(F)(F)F)c1C (stereo not drawn) [Compound 1-484]	90
CCOC(=O)N(c1ccccc1Cc1c(C)n(CC(C)CC)oc1=O)S(=O)(=O)C(F)(F)F (stereo not drawn) [Compound 1-611]	100

These molecules were tested on broad leaf weeds (Lindernia pyxidaria and Monochoria vaginalis) in the same assay as above. Conditions: Lindernia pyxidaria, 120 g/10a active ingredient, dry weight vs untreated area, 14 days after treatment.
Format: in vivo
Procedure, shortened: as §1

Structure (SMILES)	Herbicidal rate (%) Lindernia pyxidaria [%]
Cc1c(Cc2ccccc2N(C(=O)Oc2ccccc2)S(=O)(=O)C(F)(F)F)c(=O)on1C(C)(C)C [Compound 1-762]	90
CCC(C)n1oc(=O)c(Cc2ccccc2N(C(=O)c2ccc(Cl)cc2)S(=O)(=O)C(F)(F)F)c1C (stereo not drawn) [Compound 1-484]	90
CCOC(=O)N(c1ccccc1Cc1c(C)n(CC(C)CC)oc1=O)S(=O)(=O)C(F)(F)F (stereo not drawn) [Compound 1-611]	90

Same assay, conditions: Monochoria vaginalis, 120 g/10a active ingredient, dry weight vs untreated area, 14 days after treatment

Structure (SMILES)	Herbicidal rate (%) Monochoria vaginalis [%]
Cc1c(Cc2ccccc2N(C(=O)Oc2ccccc2)S(=O)(=O)C(F)(F)F)c(=O)on1C(C)(C)C [Compound 1-762]	90
CCC(C)n1oc(=O)c(Cc2ccccc2N(C(=O)c2ccc(Cl)cc2)S(=O)(=O)C(F)(F)F)c1C (stereo not drawn) [Compound 1-484]	90
CCOC(=O)N(c1ccccc1Cc1c(C)n(CC(C)CC)oc1=O)S(=O)(=O)C(F)(F)F (stereo not drawn) [Compound 1-611]	80

The molecules below were run on Scirpus juncoides in the same assay as above. Conditions: 120 g/10a active ingredient, dry weight vs untreated area, 14 days after treatment.
Format: in vivo
Procedure, shortened: as §1

Structure (SMILES)	Herbicidal rate (%) Scirpus juncoides [%]
Cc1c(Cc2ccccc2N(C(=O)Oc2ccccc2)S(=O)(=O)C(F)(F)F)c(=O)on1C(C)(C)C [Compound 1-762]	90
CCC(C)n1oc(=O)c(Cc2ccccc2N(C(=O)c2ccc(Cl)cc2)S(=O)(=O)C(F)(F)F)c1C (stereo not drawn) [Compound 1-484]	90
CCOC(=O)N(c1ccccc1Cc1c(C)n(CC(C)CC)oc1=O)S(=O)(=O)C(F)(F)F (stereo not drawn) [Compound 1-611]	90

The molecules below were run on southern crabgrass (assay: Test Example 3: herbicidal effect test by treatment of dry field farming soil (one day after seeding)). Conditions: 120 g/10a active ingredient, evaluated 14 days after treatment.
Format: in vivo
Procedure, shortened: (§2)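 Pre-emergence soil treatment: alluvial dry-field soil, 20 seeds per species mixed into top 1 cm, emulsion diluted in water sprayed one day after seeding at 100 L per 10 ares (120 g active ingredient per 10 ares). Duplicate pots; herbicidal rate (%) from dry weight vs untreated at 14 days.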

Structure (SMILES)	herbicidal rate, southern crabgrass [%]
Cc1c(Cc2ccccc2N(C(=O)Oc2ccccc2)S(=O)(=O)C(F)(F)F)c(=O)on1C(C)(C)C [Compound 1-762]	90
CCC(C)n1oc(=O)c(Cc2ccccc2N(C(=O)c2ccc(Cl)cc2)S(=O)(=O)C(F)(F)F)c1C (stereo not drawn) [Compound 1-484]	90
CCOC(=O)N(c1ccccc1Cc1c(C)n(CC(C)CC)oc1=O)S(=O)(=O)C(F)(F)F (stereo not drawn) [Compound 1-611]	70

These molecules were tested on Echinochloa crus-galli in the same assay as above. Conditions: 120 g/10a active ingredient, evaluated 14 days after treatment.
Format: in vivo
Procedure, shortened: as §2

Structure (SMILES)	herbicidal rate, Echinochloa crus-galli [%]
Cc1c(Cc2ccccc2N(C(=O)Oc2ccccc2)S(=O)(=O)C(F)(F)F)c(=O)on1C(C)(C)C [Compound 1-762]	90
CCC(C)n1oc(=O)c(Cc2ccccc2N(C(=O)c2ccc(Cl)cc2)S(=O)(=O)C(F)(F)F)c1C (stereo not drawn) [Compound 1-484]	90
CCOC(=O)N(c1ccccc1Cc1c(C)n(CC(C)CC)oc1=O)S(=O)(=O)C(F)(F)F (stereo not drawn) [Compound 1-611]	70

The molecules below were run on Chenopodium album in the same assay as above. Conditions: 120 g/10a active ingredient, evaluated 14 days after treatment.
Format: in vivo
Procedure, shortened: as §2

Structure (SMILES)	herbicidal rate, Chenopodium album [%]
Cc1c(Cc2ccccc2N(C(=O)Oc2ccccc2)S(=O)(=O)C(F)(F)F)c(=O)on1C(C)(C)C [Compound 1-762]	90
CCC(C)n1oc(=O)c(Cc2ccccc2N(C(=O)c2ccc(Cl)cc2)S(=O)(=O)C(F)(F)F)c1C (stereo not drawn) [Compound 1-484]	90
CCOC(=O)N(c1ccccc1Cc1c(C)n(CC(C)CC)oc1=O)S(=O)(=O)C(F)(F)F (stereo not drawn) [Compound 1-611]	40

Each molecule was assayed on Amaranthus viridis in the same assay as above. Conditions: 120 g/10a active ingredient, evaluated 14 days after treatment.
Format: in vivo
Procedure, shortened: as §2

Structure (SMILES)	herbicidal rate, Amaranthus viridis [%]
Cc1c(Cc2ccccc2N(C(=O)Oc2ccccc2)S(=O)(=O)C(F)(F)F)c(=O)on1C(C)(C)C [Compound 1-762]	90
CCC(C)n1oc(=O)c(Cc2ccccc2N(C(=O)c2ccc(Cl)cc2)S(=O)(=O)C(F)(F)F)c1C (stereo not drawn) [Compound 1-484]	90
CCOC(=O)N(c1ccccc1Cc1c(C)n(CC(C)CC)oc1=O)S(=O)(=O)C(F)(F)F (stereo not drawn) [Compound 1-611]	40

These molecules were tested on southern crabgrass (assay: Test Example 4: herbicidal effect test by treatment of leave and stem in dry field farming (seven days after seeding)). Conditions: 120 g/10a active ingredient; emulsion sprayed seven days after seeding; evaluated 14 days after treatment.
Format: in vivo
Procedure, shortened: (§3)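 Twenty seeds per species were mixed into the top 1 cm of alluvial soil in 36 cm^2 pots; emulsions were sprayed seven days after seeding at 100 L per 10 ares (120 g active ingredient per 10 ares). Herbicidal rate (%) = {1 − treated/untreated mean dry weight} × 100, 14 days after treatment, duplicate.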

Structure (SMILES)	herbicidal effect (herbicidal rate), southern crabgrass [%]
Cc1c(Cc2ccccc2N(C(=O)Oc2ccccc2)S(=O)(=O)C(F)(F)F)c(=O)on1C(C)(C)C [Compound 1-762]	90
CCC(C)n1oc(=O)c(Cc2ccccc2N(C(=O)c2ccc(Cl)cc2)S(=O)(=O)C(F)(F)F)c1C (stereo not drawn) [Compound 1-484]	90
CCOC(=O)N(c1ccccc1Cc1c(C)n(CC(C)CC)oc1=O)S(=O)(=O)C(F)(F)F (stereo not drawn) [Compound 1-611]	70

The molecules below were run on Echinochloa crus-galli in the same assay as above. Conditions: 120 g/10a active ingredient; emulsion sprayed seven days after seeding; evaluated 14 days after treatment.
Format: in vivo
Procedure, shortened: as §3

Structure (SMILES)	herbicidal effect (herbicidal rate), Echinochloa crus-galli [%]
Cc1c(Cc2ccccc2N(C(=O)Oc2ccccc2)S(=O)(=O)C(F)(F)F)c(=O)on1C(C)(C)C [Compound 1-762]	90
CCC(C)n1oc(=O)c(Cc2ccccc2N(C(=O)c2ccc(Cl)cc2)S(=O)(=O)C(F)(F)F)c1C (stereo not drawn) [Compound 1-484]	90
CCOC(=O)N(c1ccccc1Cc1c(C)n(CC(C)CC)oc1=O)S(=O)(=O)C(F)(F)F (stereo not drawn) [Compound 1-611]	80

These molecules were tested on Chenopodium album in the same assay as above. Conditions: 120 g/10a active ingredient; emulsion sprayed seven days after seeding; evaluated 14 days after treatment.
Format: in vivo
Procedure, shortened: as §3

Structure (SMILES)	herbicidal effect (herbicidal rate), Chenopodium album [%]
Cc1c(Cc2ccccc2N(C(=O)Oc2ccccc2)S(=O)(=O)C(F)(F)F)c(=O)on1C(C)(C)C [Compound 1-762]	40
CCC(C)n1oc(=O)c(Cc2ccccc2N(C(=O)c2ccc(Cl)cc2)S(=O)(=O)C(F)(F)F)c1C (stereo not drawn) [Compound 1-484]	40
CCOC(=O)N(c1ccccc1Cc1c(C)n(CC(C)CC)oc1=O)S(=O)(=O)C(F)(F)F (stereo not drawn) [Compound 1-611]	50

These molecules were tested on Amaranthus viridis in the same assay as above. Conditions: 120 g/10a active ingredient; emulsion sprayed seven days after seeding; evaluated 14 days after treatment.
Format: in vivo
Procedure, shortened: as §3

Structure (SMILES)	herbicidal effect (herbicidal rate), Amaranthus viridis [%]
Cc1c(Cc2ccccc2N(C(=O)Oc2ccccc2)S(=O)(=O)C(F)(F)F)c(=O)on1C(C)(C)C [Compound 1-762]	40
CCC(C)n1oc(=O)c(Cc2ccccc2N(C(=O)c2ccc(Cl)cc2)S(=O)(=O)C(F)(F)F)c1C (stereo not drawn) [Compound 1-484]	40
CCOC(=O)N(c1ccccc1Cc1c(C)n(CC(C)CC)oc1=O)S(=O)(=O)C(F)(F)F (stereo not drawn) [Compound 1-611]	60

Each molecule was assayed on Echinochloa crus-galli (assay: Test Example 2: herbicidal effect test by treatment during growing period in paddy rice cultivation (seven days after seeding)). Conditions: 120 g/10a active ingredient, assessed 14 days after treatment, dry weight vs untreated area.
Format: in vivo
Procedure, shortened: (§4)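 Paddy soil in Wagner pots with compound fertilizer, puddled; 30 seeds per species sown at 0–1 cm, flooded ~3 cm, greenhouse. Seven days after seeding, water-diluted emulsions were dropped into the water at 120 g active ingredient per 10 ares. Duplicate pots; herbicidal rate from dry weight versus untreated, 14 days after treatment.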

Structure (SMILES)	Herbicidal rate (%) Echinochloa crus-galli [%]
Cc1c(Cc2ccccc2N(C(=O)Oc2ccccc2)S(=O)(=O)C(F)(F)F)c(=O)on1C(C)(C)C [Compound 1-762]	90
CCC(C)n1oc(=O)c(Cc2ccccc2N(C(=O)c2ccc(Cl)cc2)S(=O)(=O)C(F)(F)F)c1C (stereo not drawn) [Compound 1-484]	90
CCOC(=O)N(c1ccccc1Cc1c(C)n(CC(C)CC)oc1=O)S(=O)(=O)C(F)(F)F (stereo not drawn) [Compound 1-611]	100

What follows are molecules tested on broad leaf weeds (Lindernia pyxidaria and Monochoria vaginalis) in the same assay as above. Conditions: Lindernia pyxidaria, 120 g/10a active ingredient, assessed 14 days after treatment, dry weight vs untreated area.
Format: in vivo
Procedure, shortened: as §4

Structure (SMILES)	Herbicidal rate (%) Lindernia pyxidaria [%]
Cc1c(Cc2ccccc2N(C(=O)Oc2ccccc2)S(=O)(=O)C(F)(F)F)c(=O)on1C(C)(C)C [Compound 1-762]	90
CCC(C)n1oc(=O)c(Cc2ccccc2N(C(=O)c2ccc(Cl)cc2)S(=O)(=O)C(F)(F)F)c1C (stereo not drawn) [Compound 1-484]	90
CCOC(=O)N(c1ccccc1Cc1c(C)n(CC(C)CC)oc1=O)S(=O)(=O)C(F)(F)F (stereo not drawn) [Compound 1-611]	70

Same assay, conditions: Monochoria vaginalis, 120 g/10a active ingredient, assessed 14 days after treatment, dry weight vs untreated area

Structure (SMILES)	Herbicidal rate (%) Monochoria vaginalis [%]
Cc1c(Cc2ccccc2N(C(=O)Oc2ccccc2)S(=O)(=O)C(F)(F)F)c(=O)on1C(C)(C)C [Compound 1-762]	90
CCC(C)n1oc(=O)c(Cc2ccccc2N(C(=O)c2ccc(Cl)cc2)S(=O)(=O)C(F)(F)F)c1C (stereo not drawn) [Compound 1-484]	90
CCOC(=O)N(c1ccccc1Cc1c(C)n(CC(C)CC)oc1=O)S(=O)(=O)C(F)(F)F (stereo not drawn) [Compound 1-611]	80

These molecules were tested on Scirpus juncoides in the same assay as above. Conditions: 120 g/10a active ingredient, assessed 14 days after treatment, dry weight vs untreated area.
Format: in vivo
Procedure, shortened: as §4

Structure (SMILES)	Herbicidal rate (%) Scirpus juncoides [%]
Cc1c(Cc2ccccc2N(C(=O)Oc2ccccc2)S(=O)(=O)C(F)(F)F)c(=O)on1C(C)(C)C [Compound 1-762]	90
CCC(C)n1oc(=O)c(Cc2ccccc2N(C(=O)c2ccc(Cl)cc2)S(=O)(=O)C(F)(F)F)c1C (stereo not drawn) [Compound 1-484]	90
CCOC(=O)N(c1ccccc1Cc1c(C)n(CC(C)CC)oc1=O)S(=O)(=O)C(F)(F)F (stereo not drawn) [Compound 1-611]	90
